This note sets out measurements from US8450308B2 (Vitae Pharmaceuticals, Inc., priority 2008, dated 2013).

Structures are written as SMILES.

One assay deals with T1, truncated human beta-secretase (residues 1-458, His6-tagged at the C-terminus) (Homo sapiens, UniProt P56817).
T1 construct: truncated human beta-secretase (residues 1-458, His6-tagged at the C-terminus); His6 (C); made in house; host or cells: insect cells D. melanogaster S2 (baculovirus expression system (so in the source))
T1 sequence (P56817 22-458): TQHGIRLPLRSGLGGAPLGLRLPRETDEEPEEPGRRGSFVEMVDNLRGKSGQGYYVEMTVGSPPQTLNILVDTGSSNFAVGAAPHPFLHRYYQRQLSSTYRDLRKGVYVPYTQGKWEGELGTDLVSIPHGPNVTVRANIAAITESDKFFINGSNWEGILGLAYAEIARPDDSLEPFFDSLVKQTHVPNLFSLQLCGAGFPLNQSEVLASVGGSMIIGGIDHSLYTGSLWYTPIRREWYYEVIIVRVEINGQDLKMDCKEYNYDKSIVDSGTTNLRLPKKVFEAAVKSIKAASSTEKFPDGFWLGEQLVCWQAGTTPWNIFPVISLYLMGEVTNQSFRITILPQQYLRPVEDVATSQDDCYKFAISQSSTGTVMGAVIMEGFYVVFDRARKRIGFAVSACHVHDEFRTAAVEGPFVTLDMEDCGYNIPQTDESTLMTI
Description: BACE fluorescence quench assay. It counts as biochemical.
Conditions: not given
The procedure:
The assay was performed at room temperature in 96-well white opaque Optiplates aque Optiplates (PerkinElmer, Waltham, Mass.) in a total volume of 200 μl of the incubation mixture containing 50 mM sodium acetate buffer, pH 4.5, 0.4 μM FRET substrate, 2.4 nM enzyme, 5% DMSO, and 0.05% Brij-35. The tested compounds were serially diluted in DMSO and pre-incubated with the substrate. The reaction was started by addition of enzyme, and the progress of the reaction was followed by measuring fluorescence with an excitation wavelength of 480 nm and an emission wavelength of 520 nm. Ten measurements were taken every 5-10 min, and the intensity of fluorescence was regressed against time in order to derive velocities of reaction in all 96 wells. […] IC50 values were calculated by fitting percent inhibition vs. inhibitor concentration into a four-parametric logistic model using XLFit software (IDBS, Guildford, UK).
As to `CN1C(=O)C2(CC(c3ccccc3)Oc3ccc(-c4ccc(F)c(C#N)c4)cc32)N=C1N` (centres unmarked) [Compound 4, 5-(2′-amino-1′-methyl-5′-oxo-2-phenyl-1′,5′-dihydrospiro[chroman-4,4′-imidazole]-6-yl)-2-fluorobenzonitrile], the IC50 – broadly, the concentration that inhibits the measured activity by half – is 100 to 500 nM. The compound `CN1C(=O)C2(CC(c3ccccc3)Oc3ccc(-c4cncc(C#N)c4)cc32)N=C1N` (centres unmarked) [Compound 5, 5-(2′-amino-1′-methyl-5′-oxo-2-phenyl-1′,5′-dihydrospiro[chroman-4,4′-imidazole]-6-yl)nicotinonitrile] returned a half-maximal inhibitory concentration (IC50) of 100 to 500 nM. On to `COc1cccc(-c2ccc3c(c2)C2(CC(c4ccccc4)O3)N=C(N)N(C)C2=O)c1` (centres unmarked) [Compound 13, 2′-amino-6-(3-methoxyphenyl)-1′-methyl-2-phenylspiro[chroman-4,4′-imidazol]-5′(1′H)-one], for which the IC50 fell in the range of 100 to 500 nM. For `CN1C(=O)C2(CC(c3ccccc3)Oc3ccc(-c4cccnc4)cc32)N=C1N` (centres unmarked) [Compound 15, 2′-amino-1′-methyl-2-phenyl-6-(pyridin-3-yl)spiro[chroman-4,4′-imidazol]-5′(1′H)-one], the IC50 lay in the range of 500 to 1000 nM.

Compound `CN1C(=O)C2(CC(c3ccccc3)Oc3ccc(-c4cc(C#N)ccc4Cl)cc32)N=C1N` (centres unmarked) [Compound 21, 3-(2′-amino-1′-methyl-5′-oxo-2-phenyl-1′,5′-dihydrospiro[chroman-4,4′-imidazole]-6-yl)-4-chlorobenzonitrile] displayed a concentration for half-maximal inhibition (IC50) of 500 to 1000 nM. In turn, `C=Cc1cccc(-c2ccc3c(c2)C2(CC(c4ccccc4)O3)N=C(N)N(C)C2=O)c1` (centres unmarked) [Compound 22, 2′-amino-1′-methyl-2-phenyl-6-(3-vinylphenyl)spiro[chroman-4,4′-imidazol]-5′(1′H)-one] had an IC50 of 1000 to 5000 nM. In the case of `CN1C(=O)C2(CC(c3ccccc3)Oc3ccc(-c4cccc(OC(F)(F)F)c4)cc32)N=C1N` (centres unmarked) [Compound 24, 2′-amino-1′-methyl-2-phenyl-6-(3-(trifluoromethoxy)phenyl)spiro[chroman-4,4′-imidazol]-5′(1′H)-one], the IC50 was in the range of 1000 to 5000 nM.

On to `CN1C(=O)C2(CC(c3ccccc3)Oc3ccc(-c4ccc(CO)cc4)cc32)N=C1N` (centres unmarked) [Compound 26, 2′-amino-6-(4-(hydroxymethyl)phenyl)-1′-methyl-2-phenylspiro[chroman-4,4′-imidazol]-5′(1′H)-one], for which the IC50 was 1000 to 5000 nM. In turn, `CN1C(=O)C2(CC(c3ccccc3)Oc3ccc(-c4ccccc4)cc32)N=C1N` (centres unmarked) [Compound 27, 2′-amino-1′-methyl-2,6-diphenylspiro-[chroman-4,4′-imidazol]-5′(1′H)-one] had an IC50 of 1000 to 5000 nM. For `CN1C(=O)C2(CC(c3ccccc3)Oc3ccc(-c4cccc(S(C)(=O)=O)c4)cc32)N=C1N` (centres unmarked) [Compound 28, 2′-amino-1′-methyl-6-(3-(methylsulfonyl)phenyl)-2-phenylspiro[chroman-4,4′-imidazol]-5′(1′H)-one], the half-inhibitory concentration (IC50) was in the range of 1000 to 5000 nM.

`CN1C(=O)C2(CC(c3ccccc3)Oc3ccc(-c4cccc(CC#N)c4)cc32)N=C1N` (centres unmarked) [Compound 29, 2-(3-(2′-amino-1′-methyl-5′-oxo-2-phenyl-1′,5′-dihydrospiro[chroman-4,4′-imidazole]-6-yl)phenyl)acetonitrile]: the IC50 lay in the range of 1000 to 5000 nM.

The assay is the same for the next values; noted with them: in vitro enzyme activity, BACE fluorescence assay, pH 4.5; read-out: IC50.
As to `CN1C(=O)C2(CC(C3CCCCC3)Oc3ccc(-c4cccc(C#N)c4)cc32)N=C1N` (centres unmarked) [Compound 3, 3-(2′-amino-2-cyclohexy-1′-methyl-5′-oxo-1′,5′-dihydrospiro[chroman-4,4′-imidazole]-6-yl)benzonitrile], the IC50 lay within 100 to 500 nM. Turning to `CN1C(=O)C2(CC(c3ccc(Cl)cc3)Oc3ccc(-c4cccc(C#N)c4)cc32)N=C1N` (centres unmarked) [Compound 6], the IC50 lay within 100 to 500 nM.

With `CN1C(=O)C2(CC(c3cccc(F)c3)Oc3ccc(-c4cccc(C#N)c4)cc32)N=C1N` (centres unmarked) [Compound 7], the 50% inhibitory concentration (IC50) was 100 to 500 nM. On to `CN1C(=O)C2(CC(c3ccccc3F)Oc3ccc(-c4cccc(C#N)c4)cc32)N=C1N` (centres unmarked) [Compound 9, 3-(2′-amino-2-(2-fluorophenyl)-1′-methyl-5′-oxo-1′,5′-dihydrospiro[chroman-4,4′-imidazole]-6-yl)benzonitrile], for which the IC50 lay within 100 to 500 nM. Consider `N#Cc1cccc(-c2ccc3c(c2)C2(CC(c4ccccc4)O3)N=C(N)N(CCC3CC3)C2=O)c1` (centres unmarked) [Compound 10], for which the half-inhibitory concentration (IC50) was in the range of 100 to 500 nM. For `CN1C(=O)C2(CC(c3ccccc3)Oc3ccc(-c4cccc(C5CC5)c4)cc32)N=C1N` (centres unmarked) [Compound 11, 2′-amino-6-(3-cyclopropylphenyl)-1′-methyl-2-phenylspiro[chroman-4,4′-imidazol]-5′(1′H)-one], the IC50 lay within 100 to 500 nM. On to `CCN1C(=O)C2(CC(c3ccccc3)Oc3ccc(-c4cccc(C#N)c4)cc32)N=C1N` (centres unmarked) [Compound 12, 3-(2′-amino-1′-ethyl-5′-oxo-2-phenyl-1′,5′-dihydrospiro[chroman-4,4′-imidazole]-6-yl)benzonitrile], for which the half-maximal inhibitory concentration (IC50) fell in the range of 100 to 500 nM. For `CN1C(=O)C2(CC(c3cccc(F)c3F)Oc3ccc(-c4cccc(C#N)c4)cc32)N=C1N` (centres unmarked) [Compound 14, 3-(2′-amino-2-(2,3-difluorophenyl)-1′-methyl-5′-oxo-1′,5′-dihydrospiro[chroman-4,4′-imidazole]-6-yl)benzonitrile], the IC50 was in the range of 100 to 500 nM. `CN1C(=O)C2(CC(c3ccc(C(F)(F)F)cc3)Oc3ccc(-c4cccc(C#N)c4)cc32)N=C1N` (centres unmarked) [Compound 16]: the IC50 was 500 to 1000 nM. Same read-out and setting: the value for `CN1C(=O)C2(CC(c3ccccc3)Oc3ccc(-c4cc(N)cc(C#N)c4)cc32)N=C1N` (centres unmarked) [Compound 17, 3-amino-5-(2′-amino-1′-methyl-5′-oxo-2-phenyl-1′,5′-dihydrospiro[chroman-4,4′-imidazole]-6-yl)benzonitrile] was 500 to 1000 nM; that for `N#Cc1cccc(-c2ccc3c(c2)C2(CC(c4ccccc4)O3)N=C(N)N(CC3CCCCC3)C2=O)c1` (centres unmarked) [Compound 18, 3-(2′-amino-1′-(cyclohexylmethyl)-5′-oxo-2-phenyl-1′,5′-dihydrospiro[chroman-4,4′-imidazole]-6-yl)benzonitrile] was 500 to 1000 nM. On the same count and under the same terms, the value for `CN1C(=O)C2(CC(c3ccc(F)cc3)Oc3ccc(-c4cccc(C#N)c4)cc32)N=C1N` (centres unmarked) [Compound 19, 3-(2′-amino-2-(4-fluorophenyl)-1′-methyl-5′-oxo-1′,5′-dihydrospiro[chroman-4,4′-imidazole]-6-yl)benzonitrile] was 500 to 1000 nM. As for `CN1C(=O)[C@@]2(C[C@@H](c3ccc(F)cc3)Oc3ccc(-c4cccc(C#N)c4)cc32)N=C1N` [Compound 19a, 3-((2S,4S)-2′-amino-2-(4-fluorophenyl)-1′-methyl-5′-oxo-1′,5′-dihydrospiro[chroman-4,4′-imidazole]-6-yl)benzonitrile], the half-maximal inhibitory concentration (IC50) is 500 to 1000 nM. Take `CN1C(=O)C2(CC(c3cccc(Cl)c3)Oc3ccc(-c4cccc(C#N)c4)cc32)N=C1N` (centres unmarked) [Compound 20, 3-(2′-amino-2-(3-chlorophenyl)-1′-methyl-5′-oxo-1′,5′-dihydrospiro[chroman-4,4′-imidazole]-6-yl)benzonitrile]: the IC50 lay within 500 to 1000 nM. With `COc1cccc(C2CC3(N=C(N)N(C)C3=O)c3cc(-c4cccc(C#N)c4)ccc3O2)c1` (centres unmarked) [Compound 23, 3-(2′-amino-2-(3-methoxyphenyl)-1′-methyl-5′-oxo-1′,5′-dihydrospiro[chroman-4,4′-imidazole]-6-yl)benzonitrile], the IC50 is 1000 to 5000 nM.
